Consider one compound from patent US20240262844A1, “PYRIDINIUM SALTS AND METHODS OF USE” (UNIVERSITY OF WYOMING, priority 2023, published 2024).

Each structure is given as a SMILES string. Counter-ions that a name gives are not always drawn.

This assay concerns the target T1, bovine carbonic anhydrase II (29 kDa) (Bos taurus, UniProt P00921).
T1 construct: Carbonic Anhydrase Isozyme II from bovine erythrocytes; purchased Sigma Aldrich; host or cells: bovine erythrocytes
The assay can be described thus: Photochemical labeling of bovine carbonic anhydrase II (LC/MS, MS-MS). The assay is classed as biochemical. As to the method:
General Procedure B: Photochemical Irradiation of Peptides and Proteins: To a 2 mL Pyrex LC/MS vial (Thermo model #03-391-39) were sequentially added solutions containing the desired biomolecule, glutathione (GSH), pyridinium salt, and ammonium acetate (NH4OAc). The resulting solution was diluted to a final volume of 500 μL and then sparged using nitrogen for a minimum of 30 minutes prior to irradiation. The actively sparging solution was then placed in an EvoluChem™ PhotoRedOx Box photoreactor that was equipped with a Kessil, PR160 427 nm LED Lamp and was then irradiated (100% lamp intensity) for the designated time at room temperature while maintaining active sparging. The resultant reaction mixture was then analyzed directly by LC/MS. […]
Labeling of Bovine Carbonic Anhydrase II with Pyridinium Salt 2a (Bovine Carbonic Anhydrase II-2a Conjugate). […] The reaction mixture was directly analyzed by LC/MS using method A and was estimated to have proceeded with 34% conversion and a 4.5:1 mono:di labeled ratio. […]
General Trypsin Digest Protocol B: For non-cystine bridged labeled proteins, a standard trypsin digest was modified as follows. […] The digested mixture was analyzed directly by LC/MS and MS/MS using method C. […] The reduced product was analyzed by LC/MS-MS by selecting m/z=1108.4 for collision-induced dissociation (Collision energy=35 V). […]

T1 sequence (P00921 whole entry): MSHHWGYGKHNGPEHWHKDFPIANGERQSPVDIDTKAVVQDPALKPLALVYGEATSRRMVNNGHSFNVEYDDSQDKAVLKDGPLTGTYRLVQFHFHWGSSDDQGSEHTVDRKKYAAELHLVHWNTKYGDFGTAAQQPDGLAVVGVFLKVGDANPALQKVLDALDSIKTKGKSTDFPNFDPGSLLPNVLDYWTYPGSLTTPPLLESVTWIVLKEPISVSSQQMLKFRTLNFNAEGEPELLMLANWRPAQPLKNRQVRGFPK

As to `COC(=O)N(C)[n+]1c(C)cc(-c2ccc3cc(OC)ccc3c2)cc1C` [Pyridinium salt 2a, 1-((methoxycarbonyl)(methyl)amino)-4-(6-methoxynapthalen-2-yl)-2,6-dimethylpyridin-1-ium tetrafluoroborate], under “10 μM carbonic anhydrase II, 200 μM pyridinium salt, 300 μM glutathione, 60 minutes”, the glutathionylation result is “No glutathionylation was observed”. For the same compound, the “identifiable site of modification” value (digestion/MS-MS) is given as “Trp-243”.
